Assay results as given in patent US11420966B2 (ACLARIS THERAPEUTICS, INC., priority 2019, dated 2022).

Tests used:
[1] = molecular target: JAK1 (Homo sapiens (Human), UniProt P23458); assay: JAK1 enzyme activity assay (Thermo Fisher SelectScreen, Z-lyte); type: biochemical; conditions: read-out: JAK1 Inhibition IC50
Outline: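 Z-lyte assay with 21.2-91.5 ng JAK and […] Tyr 06 in 50 mM HEPES pH 7.0, 10 mM MgCl2, 1 mM EGTA, 0.01% BRIJ-35; 1 h kinase reaction, then development reagent. 11-point dose-response from […] to 0.34 nM, 2% DMSO vehicle; IC50 from 4-parameter logistic fit of emission ratio.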

[2] = system: IFNγ stimulated STAT1 phosphorylation on Tyr701 (JAK1/2); assay: JAK1/2 cellular target modulation: IFNγ stimulated phospho-STAT1 in PBMC; type: cell-based; conditions: human PBMC, IFNγ 10 ng/ml; read-out: Infγ-STAT1 IC50
Outline: (§1)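 Thawed human PBMC (200,000/well, RPMI/10% FBS) were preincubated with compound for 1 h at 37 °C, added from 10× stocks in 1% DMSO. Stimulation and read-out: IL-2 25 ng/ml, 5 min, pSTAT5 by MSD; IL-12 1.7 ng/ml, 25 min, pSTAT4 by MSD; IFNγ 10 ng/ml, 10 min, pSTAT1 by sandwich ELISA.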

[3] = system: IL-2 stimulated STAT5 phosphorylation on Tyr694 (JAK1/3); assay: JAK1/3 cellular target modulation: IL-2 stimulated phospho-STAT5 in PBMC; type: cell-based; conditions: human PBMC, IL-2 25 ng/ml; read-out: IL2-STAT5 IC50
Outline: as §1

[4] = molecular target: JAK2 (Homo sapiens (Human), UniProt O60674); assay: JAK2 enzyme activity assay (Thermo Fisher SelectScreen, Z-lyte); type: biochemical; conditions: read-out: JAK2 Inhibition IC50
Chain of JAK2 (O60674 whole entry): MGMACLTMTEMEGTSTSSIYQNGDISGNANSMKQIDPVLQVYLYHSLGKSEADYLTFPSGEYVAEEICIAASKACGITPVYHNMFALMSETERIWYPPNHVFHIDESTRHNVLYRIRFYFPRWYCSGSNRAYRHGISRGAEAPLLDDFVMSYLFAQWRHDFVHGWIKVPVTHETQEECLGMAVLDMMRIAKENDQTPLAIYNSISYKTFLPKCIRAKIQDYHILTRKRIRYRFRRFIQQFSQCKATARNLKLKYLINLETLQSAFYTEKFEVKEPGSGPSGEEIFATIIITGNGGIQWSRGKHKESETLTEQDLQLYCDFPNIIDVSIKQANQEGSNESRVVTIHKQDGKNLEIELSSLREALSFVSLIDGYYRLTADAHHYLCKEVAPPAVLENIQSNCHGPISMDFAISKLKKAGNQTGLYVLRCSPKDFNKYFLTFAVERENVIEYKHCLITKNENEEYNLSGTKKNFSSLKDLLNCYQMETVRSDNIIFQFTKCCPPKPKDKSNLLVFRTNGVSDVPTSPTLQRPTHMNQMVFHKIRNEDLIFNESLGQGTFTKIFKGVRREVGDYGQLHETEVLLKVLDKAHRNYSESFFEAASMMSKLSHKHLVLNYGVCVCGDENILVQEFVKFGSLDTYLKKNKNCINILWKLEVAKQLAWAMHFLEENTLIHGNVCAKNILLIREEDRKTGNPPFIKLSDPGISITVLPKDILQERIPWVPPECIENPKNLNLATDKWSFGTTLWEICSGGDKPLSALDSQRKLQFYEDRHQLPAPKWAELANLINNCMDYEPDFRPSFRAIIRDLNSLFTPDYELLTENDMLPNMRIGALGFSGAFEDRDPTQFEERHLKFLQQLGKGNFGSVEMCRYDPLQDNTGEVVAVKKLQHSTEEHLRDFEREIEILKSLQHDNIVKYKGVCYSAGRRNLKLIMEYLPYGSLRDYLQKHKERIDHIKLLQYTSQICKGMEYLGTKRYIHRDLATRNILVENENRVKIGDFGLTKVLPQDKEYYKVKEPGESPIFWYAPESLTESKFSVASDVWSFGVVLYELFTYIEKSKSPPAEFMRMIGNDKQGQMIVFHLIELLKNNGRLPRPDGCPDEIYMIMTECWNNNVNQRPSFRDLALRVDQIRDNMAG
Outline: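 IC50 values derive from a 4-parameter logistic fit of emission ratio across an 11-point series ([…] to 0.34 nM, 2% DMSO vehicle). Reaction: 1 h, 0.12-0.5 ng JAK2, […] Tyr 06 in HEPES pH 7.5 buffer with MgCl2, EGTA, BRIJ-35, read by Z-lyte development.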

[5] = system: IL-12 stimulated STAT4 phosphorylation on Tyr693 (JAK2/TYK2); assay: JAK2/TYK2 cellular target modulation: IL-12 stimulated phospho-STAT4 in PBMC; type: cell-based; conditions: human PBMC, IL-12 1.7 ng/ml; read-out: IL12-STAT4 IC50
Outline: as §1

[6] = molecular target: JAK3 (a.a. 781-1124) (Homo sapiens (Human), UniProt P52333); assay: JAK3 enzyme activity assay (SRCtide phosphorylation, Caliper); type: biochemical; conditions: 1 uM ATP; read-out: JAK3 Inhibition IC50
Chain of JAK3 (a.a. 781-1124) (P52333 781-1124): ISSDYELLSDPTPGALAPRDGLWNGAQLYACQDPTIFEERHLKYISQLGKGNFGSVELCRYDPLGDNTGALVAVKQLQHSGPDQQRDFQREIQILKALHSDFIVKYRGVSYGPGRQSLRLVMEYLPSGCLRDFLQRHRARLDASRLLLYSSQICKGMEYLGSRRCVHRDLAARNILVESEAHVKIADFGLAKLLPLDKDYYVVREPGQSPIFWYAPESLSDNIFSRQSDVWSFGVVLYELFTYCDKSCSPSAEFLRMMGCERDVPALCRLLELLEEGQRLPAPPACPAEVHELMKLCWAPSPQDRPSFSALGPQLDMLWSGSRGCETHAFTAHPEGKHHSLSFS

[7] = molecular target: Tyk-2 (Homo sapiens (Human), UniProt P29597); assay: Tyk-2 enzyme activity assay (Thermo Fisher SelectScreen, Z-lyte); type: biochemical; conditions: read-out: Tyk-2 Inhibition IC50
Chain of Tyk-2 (P29597 whole entry): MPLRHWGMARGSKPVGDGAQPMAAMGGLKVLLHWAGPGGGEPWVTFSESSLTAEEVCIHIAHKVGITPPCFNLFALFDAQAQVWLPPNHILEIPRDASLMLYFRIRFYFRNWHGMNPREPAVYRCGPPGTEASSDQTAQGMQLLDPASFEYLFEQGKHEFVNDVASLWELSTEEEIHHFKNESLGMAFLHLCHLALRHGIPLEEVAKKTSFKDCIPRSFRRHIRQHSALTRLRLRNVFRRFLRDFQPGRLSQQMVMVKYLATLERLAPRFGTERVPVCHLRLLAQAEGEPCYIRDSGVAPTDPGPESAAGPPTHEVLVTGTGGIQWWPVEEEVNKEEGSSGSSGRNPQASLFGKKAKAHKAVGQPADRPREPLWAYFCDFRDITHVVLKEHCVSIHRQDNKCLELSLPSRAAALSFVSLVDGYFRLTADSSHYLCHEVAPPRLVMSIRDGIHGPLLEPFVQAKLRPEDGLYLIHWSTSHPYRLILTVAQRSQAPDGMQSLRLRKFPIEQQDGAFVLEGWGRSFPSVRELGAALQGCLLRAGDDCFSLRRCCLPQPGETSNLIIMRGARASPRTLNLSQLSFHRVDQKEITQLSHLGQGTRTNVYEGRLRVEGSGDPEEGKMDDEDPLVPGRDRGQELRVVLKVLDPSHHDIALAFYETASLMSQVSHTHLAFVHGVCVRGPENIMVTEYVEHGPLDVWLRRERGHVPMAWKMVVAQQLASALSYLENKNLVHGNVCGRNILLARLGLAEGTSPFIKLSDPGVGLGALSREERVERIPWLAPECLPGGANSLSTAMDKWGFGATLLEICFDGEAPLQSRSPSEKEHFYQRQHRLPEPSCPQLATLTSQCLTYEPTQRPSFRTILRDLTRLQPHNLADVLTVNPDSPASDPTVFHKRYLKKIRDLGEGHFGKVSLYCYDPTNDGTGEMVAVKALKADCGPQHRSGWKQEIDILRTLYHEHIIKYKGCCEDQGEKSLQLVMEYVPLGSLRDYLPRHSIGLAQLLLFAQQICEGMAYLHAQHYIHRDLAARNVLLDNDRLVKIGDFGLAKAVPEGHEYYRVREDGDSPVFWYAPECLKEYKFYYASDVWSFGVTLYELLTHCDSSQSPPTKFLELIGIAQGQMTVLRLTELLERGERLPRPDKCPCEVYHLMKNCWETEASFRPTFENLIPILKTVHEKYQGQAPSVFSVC
Outline: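 Z-lyte FRET assay: 3.75–15 ng TYK2 with […] Tyr 03 peptide in HEPES pH 7.0, MgCl2, EGTA, BRIJ-35; 1 h reaction, then development reagent. 11-point dose-response, 2% DMSO; IC50 via 4-parameter fit of emission ratio, background without enzyme.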

Chain of JAK1 (P23458 whole entry): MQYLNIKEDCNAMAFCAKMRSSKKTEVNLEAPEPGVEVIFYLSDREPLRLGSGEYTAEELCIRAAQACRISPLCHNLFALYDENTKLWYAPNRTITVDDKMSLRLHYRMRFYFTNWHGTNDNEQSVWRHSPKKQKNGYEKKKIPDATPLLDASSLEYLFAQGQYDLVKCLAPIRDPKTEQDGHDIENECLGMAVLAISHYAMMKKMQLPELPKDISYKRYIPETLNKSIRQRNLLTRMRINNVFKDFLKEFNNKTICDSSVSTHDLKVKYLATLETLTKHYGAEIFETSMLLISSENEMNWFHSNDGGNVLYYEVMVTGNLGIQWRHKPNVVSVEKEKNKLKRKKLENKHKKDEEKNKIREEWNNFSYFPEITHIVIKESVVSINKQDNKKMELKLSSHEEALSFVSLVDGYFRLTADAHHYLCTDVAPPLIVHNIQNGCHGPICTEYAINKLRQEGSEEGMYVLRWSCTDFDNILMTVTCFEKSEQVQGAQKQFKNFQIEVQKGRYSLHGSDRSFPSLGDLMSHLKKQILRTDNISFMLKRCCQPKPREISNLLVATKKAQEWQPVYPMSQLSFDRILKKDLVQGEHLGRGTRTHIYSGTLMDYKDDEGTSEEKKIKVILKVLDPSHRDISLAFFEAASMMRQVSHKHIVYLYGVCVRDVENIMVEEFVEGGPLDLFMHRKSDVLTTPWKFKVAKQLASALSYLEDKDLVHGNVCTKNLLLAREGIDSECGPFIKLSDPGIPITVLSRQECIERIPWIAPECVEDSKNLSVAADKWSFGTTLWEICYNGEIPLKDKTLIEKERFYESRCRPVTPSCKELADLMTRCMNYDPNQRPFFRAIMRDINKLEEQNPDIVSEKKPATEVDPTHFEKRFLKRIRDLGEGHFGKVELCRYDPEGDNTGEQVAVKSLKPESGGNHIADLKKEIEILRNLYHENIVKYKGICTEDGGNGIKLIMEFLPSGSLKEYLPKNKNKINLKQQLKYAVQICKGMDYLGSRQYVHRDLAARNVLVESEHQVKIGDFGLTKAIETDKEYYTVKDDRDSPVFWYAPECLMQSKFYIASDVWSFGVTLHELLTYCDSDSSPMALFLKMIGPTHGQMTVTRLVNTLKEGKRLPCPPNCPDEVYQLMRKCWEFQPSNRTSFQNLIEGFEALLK

C[C@H]1C[C@@H](Nc2c(-c3ncc(S(C)(=O)=O)s3)cnc3[nH]ccc23)CN(C(=O)CC#N)C1 [Example 65, 3-((3S,5R)-3-methyl-5-((5-(5-(methylsulfonyl)thiazol-2-yl)-1H-pyrrolo[2,3-b]pyridin-4-yl)amino)piperidin-1-yl)-3-oxopropanenitrile]
IC50 [1]: ≤ 10 nM | IC50 [2]: ≤ 100 nM | IC50 [3]: ≤ 100 nM | IC50 [4]: ≤ 10 nM | IC50 [5]: ≤ 100 nM | IC50 [6]: ≤ 10 nM | IC50 [7]: ≤ 10 nM

C[C@H]1C[C@@H](Nc2c(-c3nccs3)cnc3[nH]ccc23)CN(CC2CC2(F)F)C1 (stereo partly drawn) [Example 67, N-((3R,5S)-1-((2,2-difluorocyclopropyl)methyl)-5-methylpiperidin-3-yl)-5-(thiazol-2-yl)-1H-pyrrolo[2,3-b]pyridin-4-amine]
IC50 [1]: 10 to 100 nM | IC50 [2]: 100 to 1000 nM | IC50 [3]: 100 to 1000 nM | IC50 [4]: 10 to 100 nM | IC50 [5]: > 1000 nM | IC50 [6]: ≤ 10 nM | IC50 [7]: 10 to 100 nM

C[C@H]1C[C@@H](Nc2c(-c3nncs3)cnc3[nH]ccc23)CN(C(=O)CC#N)C1 [Example 68, 3-((3R,5S)-3-((5-(1,3,4-thiadiazol-2-yl)-1H-pyrrolo[2,3-b]pyridin-4-yl)amino)-5-methylpiperidin-1-yl)-3-oxopropanenitrile]
IC50 [1]: ≤ 10 nM | IC50 [2]: ≤ 100 nM | IC50 [3]: ≤ 100 nM | IC50 [4]: ≤ 10 nM | IC50 [5]: ≤ 100 nM | IC50 [6]: ≤ 10 nM | IC50 [7]: ≤ 10 nM
